Assays:
[1] = target: T1, wt human TYK2, catalytic site (Homo sapiens, UniProt P29597); assay: HTRF KinEASE assay, TYK2; assay type: biochemical; settings: 1 μM ATP; read-out: IC50, Activity Toward TYK2
T1 construct: wt human TYK2, catalytic site; purchased SignalChem
T1 sequence (P29597 897-1176 limits assumed): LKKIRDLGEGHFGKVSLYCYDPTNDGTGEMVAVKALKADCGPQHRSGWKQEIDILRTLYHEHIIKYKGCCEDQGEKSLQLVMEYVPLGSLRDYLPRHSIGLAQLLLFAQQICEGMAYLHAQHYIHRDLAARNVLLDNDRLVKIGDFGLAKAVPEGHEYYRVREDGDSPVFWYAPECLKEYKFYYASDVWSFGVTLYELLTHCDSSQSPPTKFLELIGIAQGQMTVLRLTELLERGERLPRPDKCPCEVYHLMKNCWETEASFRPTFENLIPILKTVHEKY
Protocol: (§1) Basic protocol for HTRF KinEASE assay (Cisbio/FRA) inhibitor studies involved two steps: • Enzymatic step: Addition of 4 μL of test compound in corresponding DMSO dilutions, 4 μL of kinase/substrate mixture, 2 μL of ATP into 384 well small volume plates. Incubation for at least 30 minutes at room temperature. • Detection step: Addition of 5 μL antibody and 5 μL streptavidin-XL665, read plate after 60 minutes. Data analysis of emission ratios according KinEASE assay protocol.
(§2) Kinase and assay components were adjusted to final concentrations according to kit protocol. For TYK2: 2 nM wt human TYK2, catalytic site (SignalChem/CAN), 1 μM HTRF KinEASE-TK Substrate-biotin, 1 μM ATP in 1× Kinase Buffer. For JAK1: 4 nM wt human JAK1, catalytic site (ThermoFisher/USA), 1 μM HTRF KinEASE-TK Substrate-biotin, 2.5 μM ATP in 1× Kinase Buffer. For JAK2: 1 nM wt human JAK2, catalytic site (SignalChem/CAN), 1 μM HTRF KinEASE-TK Substrate-biotin, 100 μM ATP in 1× Kinase Buffer.
as §2

[2] = target: T2, wt human JAK1, catalytic site (Homo sapiens, UniProt P23458); assay: HTRF KinEASE assay, JAK1; assay type: biochemical; settings: 2.5 μM ATP; read-out: IC50, Activity Toward JAK1
T2 construct: wt human JAK1, catalytic site; purchased ThermoFisher
Protocol: as §1
as §2, with “For JAK1: 4 nM wt human JAK1, catalytic site (ThermoFisher/USA), 1 μM HTRF KinEASE-TK Substrate-biotin, 2.5 μM ATP in 1× Kinase Buffer.” left out
as §2, with “For JAK1: 4 nM wt human JAK1, catalytic site (ThermoFisher/USA), 1 μM HTRF KinEASE-TK Substrate-biotin, 2.5 μM ATP in 1× Kinase Buffer.” left out

T2 sequence (P23458 875-1153 limits assumed): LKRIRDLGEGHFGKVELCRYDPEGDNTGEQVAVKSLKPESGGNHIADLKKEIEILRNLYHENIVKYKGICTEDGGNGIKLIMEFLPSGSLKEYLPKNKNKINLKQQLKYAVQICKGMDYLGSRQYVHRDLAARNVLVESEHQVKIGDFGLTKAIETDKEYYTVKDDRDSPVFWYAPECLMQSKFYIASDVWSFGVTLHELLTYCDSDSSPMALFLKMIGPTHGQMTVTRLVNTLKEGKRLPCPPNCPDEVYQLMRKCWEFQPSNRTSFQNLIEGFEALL

SMILES	IC50 [1] [nM]	IC50 [2] [nM]
CC(F)(F)c1nnnn1-c1ccc(Nc2cn(-c3c(Cl)cccc3Cl)nc2C(N)=O)cn1 [compound 460, 1-(2,6-dichlorophenyl)-4-((6-(5-(1,1-difluoroethyl)-1H-tetrazol-1-yl)pyridin-3-yl)amino)-1H-pyrazole-3-carboxamide]	100 to 1000	100 to 1000
CC(C)(C)OC(=O)N[C@H]1CCN(C(=O)c2ccc(Nc3cn(-c4c(Cl)cccc4Cl)nc3C(N)=O)cc2)C1 [compound 325, (S)-tert-butyl_(1-(4-((3-carbamoyl-1-(2,6-dichlorophenyl)-1H-pyrazol-4-yl)amino)benzoyl)pyrrolidin-3-yl)carbamate]	10 to 100	100 to 1000
NC(=O)c1nn(-c2c(F)cccc2Cl)cc1Nc1ccc(-n2cc3c(n2)CCOC3)cc1 [compound 209, 1-(2-chloro-6-fluorophenyl)-4-((4-(6,7-dihydropyrano[4,3-c]pyrazol-2(4H)-yl)phenyl)amino)-1H-pyrazole-3-carboxamide]	10 to 100	100 to 1000
CN(C)[C@@H]1CCN(C(=O)c2ccc(Nc3nn(-c4c(Cl)cccc4Cl)nc3C(N)=O)nc2)C1 [compound 133, (R)-2-(2,6-dichlorophenyl)-5-((5-(3-(dimethylamino)pyrrolidine-1-carbonyl)pyridin-2-yl)amino)-2H-1,2,3-triazole-4-carboxamide]	100 to 1000	10 to 100
NC(=O)c1nn(-c2c(Cl)cccc2Cl)cc1Nc1cnn(CC(=O)N2CCOCC2)c1 [compound 461, 1-(2,6-dichlorophenyl)-4-((1-(2-morpholino-2-oxoethyl)-1H-pyrazol-4-yl)amino)-1H-pyrazole-3-carboxamide]	10 to 100	10 to 100
CN1CCN(C(=O)c2ccc(Nc3cn(-c4c(Cl)cccc4Cl)nc3C(N)=O)cn2)CC1 [compound 363, 1-(2,6-dichlorophenyl)-4-((6-(4-methylpiperazine-1-carbonyl)pyridin-3-yl)amino)-1H-pyrazole-3-carboxamide]	10 to 100	100 to 1000
NC(=O)c1nn(-c2c(Cl)cccc2Cl)cc1Nc1ccc(C(=O)N2CCCCCC2)cc1 [compound 95, 4-((4-(azepane-1-carbonyl)phenyl)amino)-1-(2,6-dichlorophenyl)-1H-pyrazole-3-carboxamide]	< 10	100 to 1000
Cn1cncc1-c1ccc(Nc2cn(-c3c(Cl)cccc3Cl)nc2C(N)=O)cc1 [compound 204, 1-(2,6-dichlorophenyl)-4-((4-(1-methyl-1H-imidazol-5-yl)phenyl)amino)-1H-pyrazole-3-carboxamide]	10 to 100	100 to 1000
Cc1cnnc(-c2ccc(Nc3cn(-c4c(Cl)cccc4Cl)nc3C(N)=O)cc2)c1C [compound 213, 1-(2,6-dichlorophenyl)-4-((4-(4,5-dimethylpyridazin-3-yl)phenyl)amino)-1H-pyrazole-3-carboxamide]	10 to 100	100 to 1000
Cc1cncc2nnc(-c3ccc(Nc4nn(-c5c(Cl)cccc5Cl)nc4C(N)=O)cn3)n12 [compound 161, 2-(2,6-dichlorophenyl)-5-((6-(5-methyl-[1,2,4]triazolo[4,3-a]pyrazin-3-yl)pyridin-3-yl)amino)-2H-1,2,3-triazole-4-carboxamide]	10 to 100	10 to 100
NC(=O)c1nn(-c2c(Cl)cccc2Cl)cc1Nc1ccc(C(=O)N2CC[C@H](F)C2)cn1 [compound 367, (S)-1-(2,6-dichlorophenyl)-4-((5-(3-fluoropyrrolidine-1-carbonyl)pyridin-2-yl)amino)-1H-pyrazole-3-carboxamide]	10 to 100	100 to 1000
NC(=O)c1nn(-c2c(Cl)cccc2Cl)cc1Nc1ccc(C(=O)N2CCCC2)cn1 [compound 226, 1-(2,6-dichlorophenyl)-4-((5-(pyrrolidine-1-carbonyl)pyridin-2-yl)amino)-1H-pyrazole-3-carboxamide]	10 to 100	100 to 1000
COc1cc(Cl)c(-n2nc(Nc3ccc(C(=O)N4CCSCC4)cc3)c(C(N)=O)n2)c(Cl)c1 [compound 176, 2-(2,6-dichloro-4-methoxyphenyl)-5-((4-(thiomorpholine-4-carbonyl)phenyl)amino)-2H-1,2,3-triazole-4-carboxamide]	100 to 1000	10 to 100
CCc1cnnn1-c1ccc(Nc2nn(-c3c(Cl)cccc3Cl)nc2C(N)=O)cc1 [compound 126, 2-(2,6-dichlorophenyl)-5-((4-(5-ethyl-1H-1,2,3-triazol-1-yl)phenyl)amino)-2H-1,2,3-triazole-4-carboxamide]	10 to 100	< 10
CS(=O)(=O)n1cc(Nc2nn(-c3c(Cl)cccc3Cl)nc2C(N)=O)cn1 [Compound No. 172, 2-(2,6-dichlorophenyl)-5-((1-(methylsulfonyl)-1H-pyrazol-4-yl)amino)-2H-1,2,3-triazole-4-carboxamide]		100 to 1000
NC(=O)c1nn(-c2c(Cl)cccc2Cl)cc1Nc1ccc(-n2ccc(Cl)n2)cc1 [compound 76, 4-((4-(3-chloro-1H-pyrazol-1-yl)phenyl)amino)-1-(2,6-dichlorophenyl)-1H-pyrazole-3-carboxamide]		100 to 1000
CCc1c(C)nn(-c2ccc(Nc3cn(-c4c(Cl)cccc4Cl)nc3C(N)=O)cc2)c1C [compound 222, 1-(2,6-dichlorophenyl)-4-((4-(4-ethyl-3,5-dimethyl-1H-pyrazol-1-yl)phenyl)amino)-1H-pyrazole-3-carboxamide]		100 to 1000
Cc1cn(-c2ccc(Nc3cn(-c4c(Cl)cccc4Cl)nc3C(N)=O)cc2)nc1C [compound 217, 1-(2,6-dichlorophenyl)-4-((4-(3,4-dimethyl-1H-pyrazol-1-yl)phenyl)amino)-1H-pyrazole-3-carboxamide]		100 to 1000
NC(=O)c1nn(-c2c(Cl)cccc2Cl)nc1Nc1ccc(-n2nncc2C(F)(F)F)cc1 [compound 155, 2-(2,6-dichlorophenyl)-5-((4-(5-(trifluoromethyl)-1H-1,2,3-triazol-1-yl)phenyl)amino)-2H-1,2,3-triazole-4-carboxamide]		10 to 100
NC(=O)c1nn(-c2c(Cl)cccc2Cl)cc1Nc1ccc(-n2nncc2C(F)(F)F)cn1 [compound 437, 1-(2,6-dichlorophenyl)-4-((5-(5-(trifluoromethyl)-1H-1,2,3-triazol-1-yl)pyridin-2-yl)amino)-1H-pyrazole-3-carboxamide]		100 to 1000
CCNC(=O)c1ccc(Nc2cn(-c3c(F)cccc3F)nc2C(N)=O)cn1 [compound 24, 5-((3-carbamoyl-1-(2,6-difluorophenyl)-1H-pyrazol-4-yl)amino)-N-ethylpicolinamide]	100 to 1000	
Cn1nnc(-c2ccc(Nc3cn(-c4c(Cl)cccc4Cl)nc3C(N)=O)nc2)n1 [compound 434, 1-(2,6-dichlorophenyl)-4-((5-(2-methyl-2H-tetrazol-5-yl)pyridin-2-yl)amino)-1H-pyrazole-3-carboxamide]	100 to 1000	
CCc1nc(C(F)(F)F)nn1-c1ccc(Nc2nn(-c3c(Cl)cccc3Cl)nc2C(N)=O)cc1 [compound 121]		100 to 1000
NC(=O)c1nn(-c2c(Cl)cccc2Cl)cc1Nc1ccc(-c2nc(C(F)(F)F)cn2C2COC2)cc1 [compound 301, 1-(2,6-dichlorophenyl)-4-((4-(1-(oxetan-3-yl)-4-(trifluoromethyl)-1H-imidazol-2-yl)phenyl)amino)-1H-pyrazole-3-carboxamide]	< 10	
NC(=O)c1nn(-c2c(Cl)cccc2Cl)cc1Nc1ccc(C(=O)N2CC[C@H](N)C2)cn1 [compound 368, (S)-4-((5-(3-aminopyrrolidine-1-carbonyl)pyridin-2-yl)amino)-1-(2,6-dichlorophenyl)-1H-pyrazole-3-carboxamide]	100 to 1000	
Cc1cc(C(F)(F)F)nn1-c1ccc(Nc2cn(-c3c(Cl)cccc3Cl)nc2C(N)=O)cc1 [compound 257, 1-(2,6-dichlorophenyl)-4-((4-(5-methyl-3-(trifluoromethyl)-1H-pyrazol-1-yl)phenyl)amino)-1H-pyrazole-3-carboxamide]	100 to 1000	
CCc1cccnc1-c1ccc(Nc2cn(-c3c(Cl)cccc3Cl)nc2C(N)=O)cc1 [compound 234, 1-(2,6-dichlorophenyl)-4-((4-(3-ethylpyridin-2-yl)phenyl)amino)-1H-pyrazole-3-carboxamide]		100 to 1000
CCc1nc(C(F)(F)F)nn1-c1ccc(Nc2cn(-c3c(Cl)cccc3Cl)nc2C(N)=O)cn1 [compound 329, 1-(2,6-dichlorophenyl)-4-((6-(5-ethyl-3-(trifluoromethyl)-1H-1,2,4-triazol-1-yl)pyridin-3-yl)amino)-1H-pyrazole-3-carboxamide]	100 to 1000	

Reference: patent US20230373985A1 (Origenis Gmbh, priority 2020, published 2023)
